Laboratory results taken from ChEMBL document CHEMBL1156367, “Makaluvamine P, a new cytotoxic pyrroloiminoquinone from Zyzzya cf. fuliginosa” (J Nat Prod, 2001).

Experiments:
KB = assay: Cytotoxicity against human KB cells at 3.2 ug/mL after 48 hrs by XTT assay; type: functional
[1] = molecular target: Xanthine dehydrogenase/oxidase (Homo sapiens, UniProt P47989); assay: Inhibition of xanthine oxidase by spectrophotometry
[2] = ABTS radical scavenging activity assessed as trolox equivalents by TEAC assay; type: physicochemical

Sequence of Xanthine dehydrogenase/oxidase (P47989 whole entry): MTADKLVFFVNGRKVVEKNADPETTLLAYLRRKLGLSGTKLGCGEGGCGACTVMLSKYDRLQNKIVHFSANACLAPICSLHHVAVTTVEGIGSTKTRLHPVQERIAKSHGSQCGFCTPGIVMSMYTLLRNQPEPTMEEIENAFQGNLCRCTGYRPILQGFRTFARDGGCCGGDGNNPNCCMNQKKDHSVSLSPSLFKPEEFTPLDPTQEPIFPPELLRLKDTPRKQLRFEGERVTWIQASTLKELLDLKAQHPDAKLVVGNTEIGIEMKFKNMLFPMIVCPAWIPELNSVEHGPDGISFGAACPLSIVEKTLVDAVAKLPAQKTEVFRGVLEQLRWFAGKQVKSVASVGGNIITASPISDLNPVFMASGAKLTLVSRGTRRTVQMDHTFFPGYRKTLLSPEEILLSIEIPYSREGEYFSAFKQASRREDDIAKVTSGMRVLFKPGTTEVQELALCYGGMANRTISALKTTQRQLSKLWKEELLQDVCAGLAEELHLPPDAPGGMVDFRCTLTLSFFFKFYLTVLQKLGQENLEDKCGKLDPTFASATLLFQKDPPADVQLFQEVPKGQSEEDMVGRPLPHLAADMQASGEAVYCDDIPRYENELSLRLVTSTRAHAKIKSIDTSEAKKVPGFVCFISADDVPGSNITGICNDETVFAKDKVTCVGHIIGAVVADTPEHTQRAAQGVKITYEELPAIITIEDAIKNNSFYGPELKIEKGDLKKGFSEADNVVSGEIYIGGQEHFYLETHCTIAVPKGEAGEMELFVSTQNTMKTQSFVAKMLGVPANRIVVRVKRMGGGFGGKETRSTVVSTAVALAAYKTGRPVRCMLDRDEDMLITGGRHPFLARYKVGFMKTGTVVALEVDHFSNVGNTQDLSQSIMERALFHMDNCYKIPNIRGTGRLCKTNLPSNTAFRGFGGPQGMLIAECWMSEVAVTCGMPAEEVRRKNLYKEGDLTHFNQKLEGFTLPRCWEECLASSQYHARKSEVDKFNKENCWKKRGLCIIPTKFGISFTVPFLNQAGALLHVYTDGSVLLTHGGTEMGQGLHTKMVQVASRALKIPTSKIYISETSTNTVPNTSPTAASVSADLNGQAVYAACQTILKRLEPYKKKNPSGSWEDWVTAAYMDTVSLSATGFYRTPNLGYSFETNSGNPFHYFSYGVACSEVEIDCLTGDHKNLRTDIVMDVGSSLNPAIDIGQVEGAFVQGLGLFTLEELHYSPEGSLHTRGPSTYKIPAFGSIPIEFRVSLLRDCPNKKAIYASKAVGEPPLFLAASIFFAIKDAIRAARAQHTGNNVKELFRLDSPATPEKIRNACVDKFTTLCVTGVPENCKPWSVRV

## Cn1cc2c3c1C(=O)C(NCCc1ccc(O)cc1)=CC3=[N+](C)CC2.[Cl-] [MAKALUVAMINE P]
KB
  inhibition at 3.2 µg/mL: 64%
[1]
  IC50: 16.5 µM
[2]
  Activity: 0.341
